Key:
HeLa cells = experiment: sulforhodamine B (SRB) antiproliferative assay; type: cell-based, human; conditions: Homo sapiens, HeLa; Table 5; read-out: GI50 in HeLa
Description: HCC1806 (CRL-2335) and HCC1937 (CRL-2336) human triple-negative breast cancer cells, HeLa (CCL-2) cervical cancer cells and SK-OV-3 (HTB-77) ovarian cancer cells were obtained from ATCC (Manassas, Va.) and validated by STR profiling (Genetica). SK-OV-3 cells stably overexpressing Pgp by adenoviral-mediated expression of MDR1 were obtained from Dr. Susan Kane and subcloned by limiting dilution to isolate the single-cell clones utilized in these studies as SK-OV-3-MDR-1-6/6 (Risinger, A. L. et al. (2008) Cancer Res. 68, 8881-8888). A single-cell clone from transfection of HeLa cells with βIII-tubulin, designated wild type βIII, was constructed and obtained from Dr. Richard Luduena (Risinger, A. L. et al. (2008) Cancer Res. 68, 8881-8888). HCC1806 and HCC1937 cells were cultured in RPMI 1640 media (Corning) with 10% FBS (Cellgro) and 50 μg/mL gentamicin (Gibco). HeLa, […] expressing HeLa, SK-OV-3 and SK-OV-3/MDR-1-6/6 cells were grown in BME media with Earle's salts (Gibco) with 10% FBS, 1× final 1% GlutaMax™ Supplement (Gibco), and […] gentamicin. The use of HeLa cells allows for the direct comparison of the in vitro potency as compared to other compounds of this class, which have been predominantly reported in this line and compound potencies are consistent among three additional cancer cell lines. HeLa cells were also used for ectopic expression of tubulin mutants due to the high degree of transfectability of this cell line. Cells were tested for mycoplasma contamination using the Mycoplasma Detection Kit-Quick Test (Cat: B39032, Lot: JW004).
The sulforhodamine B (SRB) assay was utilized to examine the antiproliferative and cytotoxic effects of the compounds (Skehan, P. et al. (1990) J. Natl. Cancer Inst. 82, 1107-1112; Vichai and Kirtikara (2006) Nat. Protoc. 1, 1112-1116). Approximately 2,000 cells per well (for SK-OV-3, HeLa and βIII-tubulin expressing HeLa) or 4,000 cells per well (for HCC1806 and HCC1937) were seeded in 96-well plates. For each biological replicate, cells were treated in triplicate with each concentration of compound or vehicle control for 48 h in a final volume of 200 μL. The plates were fixed with 10% trichloroacetic acid for protein precipitation of adherent cells and then washed with distilled water. 100 μL of SRB dye, which binds protein stoichiometrically, was added and then unbound dye removed with 1% acetic acid followed by the addition of 200 μL 10 mM Tris to solubilize the dye, which was quantified by absorbance at 560 nm. The percent growth of treated cells relative to the density at the time of drug addiction was calculated as compared to vehicle treated cells.

[1] = unprotected form; Mottram et al. 2006; cited from earlier work

Row | SMILES | GI50 (HeLa cells) [µM] | pKa [1]
1 | CC(=O)O[C@H]1[C@H]2[C@@H]([C@@H](O)[C@@H](NC(=O)CCCCCCn3cc(COc4cc5c(cc4F)C4(OC(=O)c6ccccc64)c4cc(F)c(O)cc4O5)nn3)[C@H]3C[C@@H]4O[C@@H]4[C@H](OC(C)=O)[C@]23C)[C@@H]2[C@@H](O)[C@@H]3[C@H]([C@H](C)[C@H]4O[C@]45OC(=O)[C@@](C)(O)[C@]35C)[C@@]2(C)[C@H]1OC(C)=O (some centres unmarked) [158E] | > 10 | 
2 | CC(=O)Oc1ccc2c(c1)Oc1cc(OC(C)=O)ccc1C21OC(=O)c2cc(C(=O)NCCC(=O)N[C@@H]3[C@H](O)[C@H]4[C@@H]5[C@@H](O)[C@@H]6[C@H]([C@H](C)[C@H]7O[C@]78OC(=O)[C@@](C)(O)[C@]68C)[C@@]5(C)[C@@H](OC(C)=O)[C@@H](OC(C)=O)[C@@H]4[C@]4(C)[C@@H]3C[C@@H]3O[C@@H]3[C@@H]4OC(C)=O)ccc21 [162C] | 10 | 
3 | CC(=O)O[C@H]1[C@H]2[C@@H]([C@@H](O)[C@@H](NC(=O)CCCn3cc(CNC(=O)c4ccc(-c5c6cc(F)c(=O)cc-6oc6cc(O)c(F)cc56)c(C(=O)O)c4)nn3)[C@H]3C[C@@H]4O[C@@H]4[C@H](OC(C)=O)[C@]23C)[C@@H]2[C@@H](O)[C@@H]3[C@H]([C@H](C)[C@H]4O[C@]45OC(=O)[C@@](C)(O)[C@]35C)[C@@]2(C)[C@H]1OC(C)=O [154B] | > 10 | 
4 | O=C1OC2(c3ccc(O)cc3Oc3cc(O)ccc32)c2ccccc21 [fluorescein] |  | 6.5
5 | CC(=O)Oc1cc2c(cc1F)C1(OC(=O)c3cc(C(=O)NCc4cn(CCCC(=O)N[C@@H]5[C@H](O)[C@H]6[C@@H]7[C@@H](O)[C@@H]8[C@H]([C@H](C)[C@H]9O[C@]9%10OC(=O)[C@@](C)(O)[C@]8%10C)[C@@]7(C)[C@@H](OC(C)=O)[C@@H](OC(C)=O)[C@@H]6[C@]6(C)[C@@H]5C[C@@H]5O[C@@H]5[C@@H]6OC(C)=O)nn4)ccc31)c1cc(F)c(OC(C)=O)cc1O2 [154J] | > 10 | 
6 | CC(=O)O[C@H]1[C@H]2[C@@H]([C@@H](O)[C@@H](NC(=O)CCCn3cc(COc4cc5c(cc4F)C4(OC(=O)c6ccccc64)c4cc(F)c(O)cc4O5)nn3)[C@H]3C[C@@H]4O[C@@H]4[C@H](OC(C)=O)[C@]23C)[C@@H]2[C@@H](O)[C@@H]3[C@H]([C@H](C)[C@H]4O[C@]45OC(=O)[C@@](C)(O)[C@]35C)[C@@]2(C)[C@H]1OC(C)=O (some centres unmarked) [155F] | 3.7 | 
7 | CC(=O)O[C@H]1[C@H]2[C@@H]([C@@H](O)[C@H](NC(=O)CCCN=[N+]=[N-])[C@H]3C[C@@H]4O[C@@H]4[C@H](OC(C)=O)[C@]23C)[C@@H]2[C@@H](O)[C@@H]3[C@H]([C@H](C)[C@H]4O[C@]45OC(=O)[C@@](C)(O)[C@]35C)[C@@]2(C)[C@H]1OC(C)=O [152D] | 0.12 | 
8 | CC(=O)O[C@H]1[C@H]2[C@@H]([C@@H](O)[C@@H](NC(=O)CCCCCCn3cc(COc4ccc5c(c4)Oc4cc(O)ccc4C54OC(=O)c5ccccc54)nn3)[C@H]3C[C@@H]4O[C@@H]4[C@H](OC(C)=O)[C@]23C)[C@@H]2[C@@H](O)[C@@H]3[C@H]([C@H](C)[C@H]4O[C@]45OC(=O)[C@@](C)(O)[C@]35C)[C@@]2(C)[C@H]1OC(C)=O (some centres unmarked) [158F] | 6 | 
9 | O=C(O)c1ccccc1-c1c2cc(F)c(=O)cc-2oc2cc(O)c(F)cc12 [Oregon Green, Oregon green] |  | 4.8
10 | CC(=O)O[C@H]1[C@H]2[C@@H]([C@@H](O)[C@@H](NC(=O)CCCn3cc(CNC(=O)CCCC[C@@H]4SC[C@@H]5NC(=O)N[C@@H]54)nn3)[C@H]3C[C@@H]4O[C@@H]4[C@H](OC(C)=O)[C@]23C)[C@@H]2[C@@H](O)[C@@H]3[C@H]([C@H](C)[C@H]4O[C@]45OC(=O)[C@@](C)(O)[C@]35C)[C@@]2(C)[C@H]1OC(C)=O [154C] | > 10 | 
11 | CC(=O)Oc1cc2c(cc1F)C1(OC(=O)c3cc(C(=O)NCCC(=O)N[C@@H]4[C@H](O)[C@H]5[C@@H]6[C@@H](O)[C@@H]7[C@H]([C@H](C)[C@H]8O[C@]89OC(=O)[C@@](C)(O)[C@]79C)[C@@]6(C)[C@@H](OC(C)=O)[C@@H](OC(C)=O)[C@@H]5[C@]5(C)[C@@H]4C[C@@H]4O[C@@H]4[C@@H]5OC(C)=O)ccc31)c1cc(F)c(OC(C)=O)cc1O2 [163E] | > 10 | 
12 | CC(=O)O[C@H]1[C@H]2[C@@H]([C@@H](O)[C@@H](NC(=O)CCNC(=O)c3ccc4c(c3)C(=O)OC43c4ccc(OC(=O)C(C)(C)C)cc4Oc4cc(OC(=O)C(C)(C)C)ccc43)[C@H]3C[C@@H]4O[C@@H]4[C@H](OC(C)=O)[C@]23C)[C@@H]2[C@@H](O)[C@@H]3[C@H]([C@H](C)[C@H]4O[C@]45OC(=O)[C@@](C)(O)[C@]35C)[C@@]2(C)[C@H]1OC(C)=O [163D] | 2 | 
13 | CC(=O)O[C@H]1[C@H]2[C@@H]([C@@H](O)[C@@H](NC(=O)CNC(=O)c3ccc4c(c3)C(=O)OC43c4ccc(OC(=O)C(C)(C)C)cc4Oc4cc(OC(=O)C(C)(C)C)ccc43)[C@H]3C[C@@H]4O[C@@H]4[C@H](OC(C)=O)[C@]23C)[C@@H]2[C@@H](O)[C@@H]3[C@H]([C@H](C)[C@H]4O[C@]45OC(=O)[C@@](C)(O)[C@]35C)[C@@]2(C)[C@H]1OC(C)=O [164E] | 0.74 | 
14 | CC(=O)O[C@H]1[C@H]2C([C@@H](O)[C@@H](NC(=O)c3ccc4c(c3)C(=O)OC43c4ccc(OC(=O)C(C)(C)C)cc4Oc4cc(OC(=O)C(C)(C)C)ccc43)[C@H]3C[C@@H]4O[C@@H]4[C@H](OC(C)=O)[C@@]32C)[C@@H]2[C@@H](O)[C@@H]3[C@H]([C@H](C)[C@H]4O[C@]45OC(=O)[C@@](C)(O)[C@]35C)[C@@]2(C)[C@H]1OC(C)=O (some centres unmarked) [164B] | 0.031 | 
15 | CC(=O)O[C@H]1[C@H]2[C@@H]([C@@H](O)[C@@H](NC(=O)CCCn3cc(COc4ccc5c(c4)Oc4cc(O)ccc4C54OC(=O)c5ccccc54)nn3)[C@H]3C[C@@H]4O[C@@H]4[C@H](OC(C)=O)[C@]23C)[C@@H]2[C@@H](O)[C@@H]3[C@H]([C@H](C)[C@H]4O[C@]45OC(=O)[C@@](C)(O)[C@]35C)[C@@]2(C)[C@H]1OC(C)=O (some centres unmarked) [155G] | 8.4 | 
16 | CC(=O)O[C@H]1[C@H]2[C@@H]([C@@H](O)[C@@H](NC(=O)CCCN=[N+]=[N-])[C@H]3C[C@@H]4O[C@@H]4[C@H](OC(C)=O)[C@]23C)[C@@H]2[C@@H](O)[C@@H]3[C@H]([C@H](C)[C@H]4O[C@]45OC(=O)[C@@](C)(O)[C@]35C)[C@@]2(C)[C@H]1OC(C)=O [152E] | 0.09 | 
17 | CC(=O)O[C@H]1[C@H]2[C@@H]([C@@H](O)[C@@H](NC(=O)CCCn3cc(CCC(=O)NCCCC[C@@H](NC(=O)[C@H](Cc4ccc(O)cc4)NC(=O)[C@H](CO)NC(=O)[C@H](Cc4c[nH]c5ccccc45)NC(=O)[C@H](Cc4c[nH]cn4)NC(=O)[C@@H]4CCC(=O)N4)C(=O)N[C@@H](CC(C)C)C(=O)N[C@@H](CCCNC(=N)N)C(=O)N4CCC[C@H]4C(=O)NCC(N)=O)nn3)[C@H]3C[C@@H]4O[C@@H]4[C@H](OC(C)=O)[C@]23C)[C@@H]2[C@@H](O)[C@@H]3[C@H]([C@H](C)[C@H]4O[C@]45OC(=O)[C@@](C)(O)[C@]35C)[C@@]2(C)[C@H]1OC(C)=O [171B] | 2.6 | 

Source: patent US20230061432A1, “NEW TECHNOLOGY TO CONJUGATE THE TACCALONOLIDE MICROTUBULE STABILIZERS WITH LINKERS/PAYLOADS” (priority 2019, published 2023)
